Patent publication US11214803B2, “Modulators of YAP1 expression” (Ionis Pharmaceuticals, Inc., priority 2019, dated 2022)
Marks after values point to notes of the source that are not given here. Strand notation (5' to 3'): a small letter for the sugar, then the base; units joined by * are phosphorothioate-linked, units joined directly phosphodiester-linked; [ ] holds rarer units or linkages, { } end groups; capitals alone tell only the bases. k = constrained ethyl (cEt); [5mC] = 5-methylcytosine; d = 2'-deoxy (DNA)

System: Yap1 mRNA
Assay: Antisense inhibition of human Yap1 in A-431 cells by cEt gapmers, single dose (Example 4, RTS4814)
Assay type: cell-based
In short: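 A-431 cells took up 3-10-3 cEt gapmers (16-mer, full phosphorothioate, 5-methylcytosines) by free uptake at 2,000 nM for about 48 h. Yap1 mRNA was quantified by qRT-PCR, normalized to total RNA (RIBOGREEN), and reported as % of untreated control.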

[1] = Table 14, A-431 cells, 5,000 cells per well, free uptake, 2,000 nM, approximately 48 hours, RTS4814, normalized to RIBOGREEN, Yap1 mRNA relative to untreated control, * = targets amplicon region of primer probe set
[2] = Yap1 mRNA remaining as percent of untreated control, 3-10-3 cEt gapmers, A-431 cells, Table 37
[3] = Table 16, A-431 cells, 5,000 cells per well, free uptake, 2,000 nM, approximately 48 hours, RTS4814, normalized to RIBOGREEN, Yap1 mRNA relative to untreated control cells
[4] = table after Table 37, headed TABLE 32 (gapmers targeting SEQ ID NO.: 3), A-431 cells, free uptake, 2,000 nM, approximately 48 hours, RTS4814
[5] = Table 15, A-431 cells, 5,000 cells per well, free uptake, 2,000 nM, approximately 48 hours, RTS4814, normalized to RIBOGREEN, Yap1 mRNA relative to untreated control, * = targets amplicon region of primer probe set
[6] = Table 17, A-431 cells, 5,000 cells per well, free uptake, 2,000 nM, approximately 48 hours, RTS4814, normalized to RIBOGREEN, Yap1 mRNA relative to untreated control cells
[7] = Yap1 mRNA remaining as percent of untreated control, 3-10-3 cEt gapmers, A-431 cells, Table 36

## 1074976 (antisense kT*kT*k[5mC]*dT*dA*dT*dT*dG*dG*dA*dA*dG*dA*k[5mC]*k[5mC]*kA) [Compound 1074976]
[1]
  YAP1 (% UTC): 35 % UTC

## 1075895 (antisense kA*k[5mC]*kT*d[5mC]*dG*dA*dA*dA*dG*d[5mC]*dT*dG*dG*kG*k[5mC]*k[5mC]) [compound 1075895]
[2]
  YAP1 (% UTC): 38 % UTC

## 1074818 (kA*k[5mC]*kT*dG*dA*dA*dT*dA*dT*dT*dG*d[5mC]*d[5mC]*kA*k[5mC]*k[5mC]; antisense) [Compound 1074818]
[3]
  YAP1 (% UTC): 12 % UTC

## 1074880 (k[5mC]*kT*k[5mC]*d[5mC]*dT*dG*d[5mC]*d[5mC]*dG*dA*dA*dG*d[5mC]*kA*kG*kT; antisense) [compound 1074880]
[4]
  YAP1 (% UTC): 101 % UTC

## 1075713 (kA*kA*kT*d[5mC]*dA*dA*d[5mC]*d[5mC]*dT*dT*dG*dT*dT*kA*kG*kA; antisense) [Compound 1075713]
[5]
  YAP1 (% UTC): 58 % UTC

## 1074883 (kG*kG*k[5mC]*dT*dA*dA*d[5mC]*dT*d[5mC]*d[5mC]*dT*dG*d[5mC]*k[5mC]*kG*kA; antisense) [compound 1074883]
[4]
  YAP1 (% UTC): 107 % UTC

## 1074784 (k[5mC]*k[5mC]*kA*dT*dA*dA*dG*dT*dA*dG*dA*dT*d[5mC]*kT*kA*kA; antisense) [Compound 1074784]
[1]
  YAP1 (% UTC): 25 % UTC

## 1074595 (antisense kT*kA*kG*dA*dA*dG*dT*dA*dG*dG*dA*dG*d[5mC]*kA*kA*kG) [Compound 1074595]
[6]
  YAP1 (% UTC): 4 % UTC

## 1075223 (kG*kT*kT*dA*dA*dA*dA*dG*dT*dG*dA*dA*d[5mC]*k[5mC]*k[5mC]*kA; antisense) [compound 1075223]
[2]
  YAP1 (% UTC): 19 % UTC

## 1074850 (antisense kT*kT*kG*dT*dT*dA*dT*dG*dA*dT*dA*dG*dG*k[5mC]*kA*k[5mC]) [Compound 1074850]
[3]
  YAP1 (% UTC): 5 % UTC

## 1076247 (kG*kA*k[5mC]*d[5mC]*dA*dA*dA*dA*d[5mC]*dA*dG*d[5mC]*dT*k[5mC]*kT*kT; antisense) [compound 1076247]
[2]
  YAP1 (% UTC): 11 % UTC

## 1075968 (kT*kA*kT*dT*dT*dA*dA*dG*d[5mC]*d[5mC]*dA*dA*dA*k[5mC]*k[5mC]*kG; antisense) [Compound 1075968]
[1]
  YAP1 (% UTC): 5 % UTC

## 1076451 (k[5mC]*k[5mC]*kT*dT*dA*dA*dG*dA*dA*d[5mC]*dA*dT*dG*kA*kG*kG; antisense) [Compound 1076451]
[6]
  YAP1 (% UTC): 77 % UTC

## 1075715 (kG*kA*kA*dT*dT*dA*d[5mC]*dA*dA*dT*d[5mC]*dA*dA*k[5mC]*k[5mC]*kT; antisense) [Compound 1075715]
[6]
  YAP1 (% UTC): 12 % UTC

## 1075158 (k[5mC]*kG*kG*d[5mC]*dA*dA*dA*dA*dA*d[5mC]*dA*dA*dA*kA*kT*k[5mC]; antisense) [compound 1075158]
[7]
  YAP1 (% UTC): 76 % UTC

## 1075520 (k[5mC]*k[5mC]*k[5mC]*d[5mC]*dA*dA*d[5mC]*dA*dA*d[5mC]*dT*dG*d[5mC]*kT*kA*kA; antisense) [Compound 1075520]
[1]
  YAP1 (% UTC): 77 % UTC

## 1075649 (k[5mC]*kT*kT*d[5mC]*dA*dA*dT*dA*dA*dA*dG*dT*dG*kG*kG*kA; antisense) [Compound 1075649]
[5]
  YAP1 (% UTC): 56 % UTC

## 1074967 (antisense kG*kA*k[5mC]*dA*dA*dA*dT*dT*dG*dA*dA*dG*dT*kG*kT*kT) [compound 1074967]
[2]
  YAP1 (% UTC): 116 % UTC

## 1074817 (k[5mC]*kT*kG*dA*dA*dT*dA*dT*dT*dG*d[5mC]*d[5mC]*dA*k[5mC]*k[5mC]*k[5mC]; antisense) [Compound 1074817]
[5]
  YAP1 (% UTC): 8 % UTC

## 1075840 (k[5mC]*k[5mC]*kT*dA*dA*dA*dA*dT*dA*dG*dG*dA*dA*kT*kG*k[5mC]; antisense) [Compound 1075840]
[1]
  YAP1 (% UTC): 89 % UTC

## 1076355 (k[5mC]*kT*kA*d[5mC]*dA*dA*dA*dA*dG*dA*dG*d[5mC]*dT*kA*kT*kG; antisense) [Compound 1076355]
[6]
  YAP1 (% UTC): 92 % UTC

## 1075296 (antisense kA*kT*kT*dA*dT*dA*dA*dG*d[5mC]*dT*dG*dT*dG*kT*kT*kG) [Compound 1075296]
[1]
  YAP1 (% UTC): 18 % UTC

## 1074370 (antisense kT*kT*kG*dA*dT*dA*dG*dT*dA*dT*d[5mC]*dA*d[5mC]*k[5mC]*kT*kG) [Compound 1074370]
[3]
  YAP1 (% UTC): 8 % UTC

## 1075233 (antisense kG*kT*kA*dA*dT*dT*dT*dA*dT*d[5mC]*dA*dG*d[5mC]*k[5mC]*kA*kT) [Compound 1075233]
[5]
  YAP1 (% UTC): 2 % UTC

## 1075351 (antisense kA*kG*kA*dT*dT*dA*dA*dA*dG*d[5mC]*dT*d[5mC]*dA*kT*kT*kG) [compound 1075351]
[2]
  YAP1 (% UTC): 38 % UTC

## 1076545 (antisense kA*kA*k[5mC]*d[5mC]*dA*dA*d[5mC]*d[5mC]*dT*dT*d[5mC]*d[5mC]*d[5mC]*kT*kA*k[5mC]) [Compound 1076545]
[5]
  YAP1 (% UTC): 68 % UTC

## 1074359 (antisense kT*kT*k[5mC]*dG*dA*dG*dG*dG*dA*d[5mC]*dA*d[5mC]*dT*kG*kT*kA) [compound 1074359]
[2]
  YAP1 (% UTC): 18 % UTC

## 1076418 (kT*kA*kT*dA*dA*dT*dA*dA*d[5mC]*d[5mC]*d[5mC]*dA*dT*kT*kG*kT; antisense) [Compound 1076418]
[3]
  YAP1 (% UTC): 63 % UTC

## 1074871 (kT*kG*kT*dA*dA*dG*dT*dA*d[5mC]*d[5mC]*dT*dA*dA*k[5mC]*kA*kT; antisense) [compound 1074871]
[2]
  YAP1 (% UTC): 70 % UTC

## 1075811 (kA*kT*kT*dG*dT*dA*dG*d[5mC]*dA*dA*dT*dA*dG*kA*kG*kT; antisense) [Compound 1075811]
[6]
  YAP1 (% UTC): 10 % UTC

## 1074307 (antisense kG*kT*kG*dG*d[5mC]*d[5mC]*dT*d[5mC]*dA*d[5mC]*d[5mC]*dT*dG*k[5mC]*k[5mC]*kG) [Compound 1074307]
[6]
  YAP1 (% UTC): 105 % UTC

## 1076546 (antisense k[5mC]*k[5mC]*k[5mC]*d[5mC]*dA*dA*d[5mC]*d[5mC]*dT*dG*dA*dG*dG*kA*kG*k[5mC]) [Compound 1076546]
[3]
  YAP1 (% UTC): 94 % UTC

## 1075395 (kA*kT*kG*dA*dA*dT*dA*dA*dG*dT*dA*dT*dG*k[5mC]*k[5mC]*kA; antisense) [Compound 1075395]
[6]
  YAP1 (% UTC): 4 % UTC

## 1074423 (k[5mC]*kA*kA*dA*d[5mC]*dA*dG*dG*d[5mC]*dT*d[5mC]*dA*d[5mC]*kT*kT*k[5mC]; antisense) [compound 1074423]
[2]
  YAP1 (% UTC): 4* % UTC

## 1076128 (kT*k[5mC]*kT*dA*dA*dA*d[5mC]*d[5mC]*dT*dA*dA*dA*dG*kA*k[5mC]*kT; antisense) [Compound 1076128]
[1]
  YAP1 (% UTC): 118 % UTC

## 1074582 (DNA kT*kA*kA*dA*d[5mC]*d[5mC]*dA*d[5mC]*dT*dA*dT*dA*dA*kA*kG*k[5mC]; antisense) [compound 1074582]
[7]
  YAP1 (% UTC): 18 % UTC

## 1074594 (antisense kT*kA*kG*dG*dA*dG*d[5mC]*dA*dA*dG*dT*d[5mC]*dT*kT*kG*kT) [Compound 1074594]
[3]
  YAP1 (% UTC): 6 % UTC

## 1074615 (DNA kT*kT*k[5mC]*dA*dT*dA*dG*d[5mC]*dT*dT*dA*dT*dA*kT*kT*kG; antisense) [compound 1074615]
[2]
  YAP1 (% UTC): 8 % UTC

## 1076225 (kA*kT*kA*dT*dA*dA*dA*d[5mC]*d[5mC]*dT*dT*dG*d[5mC]*kT*kA*k[5mC]; antisense) [Compound 1076225]
[5]
  YAP1 (% UTC): 66 % UTC

## 1075522 (k[5mC]*kA*kA*dA*dT*d[5mC]*dG*dA*dG*dG*d[5mC]*dG*dA*kA*kT*k[5mC]; antisense) [Compound 1075522]
[3]
  YAP1 (% UTC): 82 % UTC

## 1074935 (antisense kA*k[5mC]*kA*dG*dG*dA*dG*dA*d[5mC]*dT*dA*dT*dA*k[5mC]*kA*kA) [compound 1074935]
[2]
  YAP1 (% UTC): 80 % UTC

## 1075350 (antisense kG*kA*kT*dT*dA*dA*dA*dG*d[5mC]*dT*d[5mC]*dA*dT*kT*kG*kA) [compound 1075350]
[7]
  YAP1 (% UTC): 62 % UTC

## 1075137 (antisense kG*kA*kT*dT*dA*dA*dA*dT*dA*d[5mC]*dT*dG*dA*k[5mC]*k[5mC]*kA) [Compound 1075137]
[5]
  YAP1 (% UTC): 3 % UTC

## 1076130 (k[5mC]*kT*kG*dG*dA*dA*dT*dA*dG*dT*dG*dG*dG*kT*kG*k[5mC]; antisense) [Compound 1076130]
[3]
  YAP1 (% UTC): 34 % UTC

## 1074466 (kA*k[5mC]*k[5mC]*dG*dA*d[5mC]*d[5mC]*d[5mC]*dT*dG*d[5mC]*d[5mC]*dA*kA*kA*kA; antisense) [Compound 1074466]
[3]
  YAP1 (% UTC): 32 % UTC

## 1075862 (antisense k[5mC]*kT*kA*dA*dT*dA*dA*d[5mC]*dT*dT*dG*dT*d[5mC]*kT*kA*k[5mC]) [compound 1075862]
[7]
  YAP1 (% UTC): 67 % UTC
